Patent publication US20240425555A1, “MUTANT BRD4 POLYPEPTIDES AND METHODS OF USE THEREOF” (Northwestern University, priority 2023, published 2024)

Assays:
Pol II pausing [1] = assay: total Pol II ChIP-seq upon auxin, JQ1, dBET6 or NVP-2 treatment; type: cell-based, human; conditions: for Pol II pausing (Pol II occupancy profile): auxin 500 uM, JQ1 1 uM, dBET6 250 nM, 3 h
Source text: FIG. 1A illustrates the updated BRD4-IAA7 degron line. The F-box protein AtAFB2 was integrated into the C terminus of the BRD4 locus under the control of an independent promoter. […] These treatment concentrations/durations are relevant to all of FIG. 1. […] The gene list (N=6481) in this analysis is used throughout the study (except for FIGS. 3H-J). FIG. 1D illustrates the estimated Cumulative Density Function (ECDF) of pause release ratios (PRR, reported as log 2 fold change) for auxin treatment vs untreated control. The PRR is the ratio of Pol II occupancy within gene bodies to its occupancy at promoters. A leftward shift of the curve indicates an increase in the frequency and/or duration of promoter-proximal pausing, while a rightward shift indicates reduced pausing and/or more efficient release into gene bodies.
FIGS. 8A-8E. collectively illustrate the differences in Pol II pausing induced by BRD4 depletion and bromodomain inhibition, related to FIG. 1. FIG. 8A illustrates the western blot showing the expression of HA-tagged AtAFB2 and the auxin-induced degradation of V5-tagged BRD4 using anti-tag antibodies. FIG. 8B illustrates the western blot comparing the BRD4 protein expression level and degradation kinetics of the previously published BRD4-AID degron to those of the BRD4-IAA7 degron used in this study 12. Note: in FIGS. 8A and 8B, the BRD4-IAA7 clone used is D4 (Hygromycin selected); it is G3 (Neomycin selected) otherwise in the study. […] FIG. 8E illustrates the track examples of Pol II ChIP-seq signal at the HSPA8 and GAPDH loci upon NVP-2 treatment (2 h) and corresponding heatmaps showing Pol II occupancy profiles and fold change in occupancy vs control upon NVP-2 treatment.
To specifically deplete BRD4 without affecting other BET proteins, we generated an updated BRD4 degron line by modifying the published miniIAA7 degron system (hereafter BRD4-IAA7) to reduce basal degradation seen with AID degron-tagged BRD4^30 (FIGS. 1A and 8A).
DLD1 cells were crosslinked with 15 ml 1% PFA (ThermoFisher, #28908) in PBS on 15 cm plates for 10 minutes at RT and quenched by the addition of 2 ml 2.5M glycine followed by shaking for 5 minutes. Crosslinked cells were collected by scraping. Chromatin sonication was performed for 10 minutes using a Covaris E200 set to 10% duty factor, 200 cycles per burst, and 140 peak intensity power. For endogenous protein ChIP, 10-20% of mouse embryonic fibroblasts (MEF) chromatin (prepared the same way as in DLD1 cells) was added to each sample as a spike-in control. For overexpressed protein ChIP, such as GFP-ChIP, 20 ng spike-in chromatin (Active Motif, #53083) and 2 ug spike-in antibody (Active Motif, #61686) were added to each sample. Immunoprecipitation was carried out at 4° C. overnight using 5ul of Rpb1 (Cell Signaling Technology, #D8L4Y), 5ul of Ser2p (Active Motif, #61984), 10ul of CCNT1 (Cell Signaling Technology, #81464), 10ul of CDK9 (Santa Cruz Biotechnology, #sc-13130 X) antibodies, or 200ul of a cocktail consisting of 50ul of each GFP antibody (DSHB, #GFP-G1, #GFP-12A6, #GFP-12E6, #GFP-8H11). Immune complexes were enriched with Protein G-coupled Dynabeads (Invitrogen, #10004D) at 4° C. for >=4 h, and incubated with proteinase K (Roche, #3115828001) to reverse crosslink at 65° C. overnight. Eluted DNA was purified with the QIAquick PCR Purification Kit (Qiagen, #28106), and libraries were prepared using the KAPA HTP library preparation kit (Roche, #07961901001) for sequencing on the NovaSeq 6000.
Reads were aligned to hg38 with bowtie 1/250. Genes (N=6,481) with pausing site and TES annotation were obtained from a previously published study51. Promoter regions were designated as spanning from 100 bp upstream to 300 bp downstream of the pausing site. Gene body regions were designated as spanning from 300 bp downstream of the pausing site to the TES. FeatureCounts 2.0.152 was used to calculate the total mapped reads from Pol II ChIP-seq at promoters and within gene bodies. […]

PTEFb [2] = molecular target: T1, PTEFb (Homo sapiens, UniProt O60563+P50750); assay: BRD4 IP / GFP IP competition for PTEFb by C46 or p46; type: binding; set-up: endogenous in cells; lysate of unnamed cells for the p46 addition
Source text: FIGS. 14A-14G. Identification of essential PTEFb binding sites in BRD4's C-terminus. FIG. 14A. Schematic showing the constructs of Dox inducible GFP-tagged BRD4 C terminus mutants with residue length indicated. Western blot of GFP IP for these two mutants upon Dox induction for 2 days showing both mutants can interact with PTEFb. FIG. 14B. […] Auxin treatment serves as a positive control for the loss of endogenous BRD4. FIG. 14C. […] FIG. 14D. […] FIG. 14E. Schematic showing the sequence alignment of the 46 residues in the C terminus of BRD4 and BRDT as well as the alanine scanning strategy to mutate each site for 3 amino acids at one time. FIG. 14F. Comparison of the ability to pull down PTEFb by Bio-p46/Bio-p46* and Biotin-labeled BRDT C terminus 46 residues (Bio-pT46) as well as Biotin-labeled BRD4 C terminus 46 residues with each of the sites mutated to AAA as shown in E (Bio-p1 to p7). FIG. 14G. Western blot of GFP IP showing the amount of PTEFb binding to GFP-tagged BRD4 C terminus fragment of 340 residues (WT) and its mutants with each of the sites mutated to AAA as indicated in E (A-H).
FIGS. 15A-15E. FIG. 15A. Spectral counts for BRD4, CCNT1, and CDK9 from the GFP IP for the GFP-tagged BRD4 C terminus fragment of 340 residues (C) and 46 residues (C46) followed by mass spectrometry. […] Quantitative curves of PTEFb signal intensity from western blot in D against increasing concentration of p46. […]

PTEFb [3] = molecular target: T1, PTEFb; assay: GFP IP-MS and GFP IP western blot of GFP-tagged BRD4 constructs; type: binding; conditions: GFP-tagged; for binding to PTEFb (western blot for GFP IP): Dox 2 days
Pol II pausing [4] = conditions: reference 21; cited from earlier work
BRDT = molecular target: T2, BRDT (Homo sapiens, UniProt Q58F21); assay: Western blot of dBET6 treatment in NCIH2009 cells (BRDT); type: cell-based; conditions: dBET6 3 h
T2 construct: endogenous in cells; host or cells: NCIH2009
Source text: FLAG antibody (#F1804) was obtained from Millipore Sigma. […] H3 antibody was generated in-house.

Ser2P = Ser2P ChIP-seq upon JQ1 or dBET6 treatment; type: cell-based, human; conditions: BRD4-IAA7 cells; series concentration of JQ1 or 250 nM dBET6, 3 h
Protocol: FIGS. 5A-5J collectively illustrate the identification of a distinct BRD4-PTEFb population, which is active but not histone acetylation-bound. FIG. 5A illustrates the track examples for AID ChIP-seq in the BRD4-AID line and CCNT1 ChIP-seq in the BRD4-IAA7 line with/without auxin treatment (3 h). H3K27ac ChIP-seq signal in the BRD4-AID line is shown for comparison. FIG. 5B illustrates the heatmap showing the genome-wide BRD4 and CCNT1 occupancy profile and the corresponding fold change upon auxin treatment for the conditions in A. Genes ranked by BRD4 signal in control. FIG. 5C illustrates the scatter plot showing the relative promoter density of CCNT1 vs BRD4, calculated by the log 2RPKM of the ChIP-seq signals at the regions flanking (±1 Kb) the Pol II pausing sites. FIG. 5D illustrates the track examples for GFP ChIP-seq signal upon induction of GFP-tagged BRD4-FL or the indicated mutants (left). Heatmap showing the genome-wide fold changes of the GFP-tagged BRD4 mutants relative to the vector (right). The endogenous BRD4 was depleted by auxin treatment (3 h) in all samples. Genes are ranked by GFP signal in the GFP-BRD4-FL condition. FIG. 5E illustrates the track examples for CCNT1 ChIP-seq signal upon endogenous BRD4 depletion and rescue with indicated GFP-tagged mutants (left). Heatmap showing the genome-wide CCNT1 fold changes (right). […]

BRD4 = BRD4 (UniProt O60885+Q38825); assay: Western blot of BRD4 degradation in BRD4-IAA7 degron line; type: cell-based, human; conditions: BRD4-IAA7 DLD1 degron line; auxin 500 uM 2 or 3 h; JQ1 1 uM or dBET6 250 nM 3 h
PTEFb [5] = molecular target: T1, PTEFb; assay: Peptide titration: p46 competition in Bio-p46 pull down assay; type: binding; set-up: endogenous in cells
Source text: FIGS. 15A-15E. FIG. 15A. Spectral counts for BRD4, CCNT1, and CDK9 from the GFP IP for the GFP-tagged BRD4 C terminus fragment of 340 residues (C) and 46 residues (C46) followed by mass spectrometry. FIG. 15B. Western blot validation for the mass spectrometry using the remaining GFP IP samples from one of the replicates. FIG. 15C. […] FIG. 15D. […] FIG. 15E. Quantitative curves of PTEFb signal intensity from western blot in D against increasing concentration of p46.
To pull down PTEFb by Biotin-labeled peptide, cells were lysed with Triton X-100 lysis buffer as used for GFP IP. Biotin-labeled peptides were pre-incubated with streptavidin beads at room temperature for 30 min. Conjugated beads were then washed with lysis buffer twice before adding to the cell lysate. Pulldown was carried out at 4° C. by rotating for >=4 h, followed by 5 times wash with lysis buffer. To elute, 4× Laemmli sample buffer was added and boiled for 10 min. For the peptide titration experiment, a series of concentration of p46 was pre-incubated with same amount of cell lysate for 1 h at 4° C. Same amount of Bio-p46 conjugated streptavidin beads were used to pull down PTEFb for >=4 h. PTEFb signal intensity from western blot was determined by Image Lab from Bio-Rad.

T1 sequence (P50750 whole entry): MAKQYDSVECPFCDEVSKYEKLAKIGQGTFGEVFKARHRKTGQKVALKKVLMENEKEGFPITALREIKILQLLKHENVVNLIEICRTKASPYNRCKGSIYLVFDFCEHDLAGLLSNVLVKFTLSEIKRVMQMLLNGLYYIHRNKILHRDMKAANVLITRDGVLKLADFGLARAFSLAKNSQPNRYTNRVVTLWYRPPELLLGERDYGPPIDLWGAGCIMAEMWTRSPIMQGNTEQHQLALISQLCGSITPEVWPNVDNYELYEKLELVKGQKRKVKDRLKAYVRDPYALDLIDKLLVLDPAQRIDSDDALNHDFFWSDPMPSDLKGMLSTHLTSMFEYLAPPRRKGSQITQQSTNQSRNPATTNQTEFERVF
T1 sequence (O60563 whole entry): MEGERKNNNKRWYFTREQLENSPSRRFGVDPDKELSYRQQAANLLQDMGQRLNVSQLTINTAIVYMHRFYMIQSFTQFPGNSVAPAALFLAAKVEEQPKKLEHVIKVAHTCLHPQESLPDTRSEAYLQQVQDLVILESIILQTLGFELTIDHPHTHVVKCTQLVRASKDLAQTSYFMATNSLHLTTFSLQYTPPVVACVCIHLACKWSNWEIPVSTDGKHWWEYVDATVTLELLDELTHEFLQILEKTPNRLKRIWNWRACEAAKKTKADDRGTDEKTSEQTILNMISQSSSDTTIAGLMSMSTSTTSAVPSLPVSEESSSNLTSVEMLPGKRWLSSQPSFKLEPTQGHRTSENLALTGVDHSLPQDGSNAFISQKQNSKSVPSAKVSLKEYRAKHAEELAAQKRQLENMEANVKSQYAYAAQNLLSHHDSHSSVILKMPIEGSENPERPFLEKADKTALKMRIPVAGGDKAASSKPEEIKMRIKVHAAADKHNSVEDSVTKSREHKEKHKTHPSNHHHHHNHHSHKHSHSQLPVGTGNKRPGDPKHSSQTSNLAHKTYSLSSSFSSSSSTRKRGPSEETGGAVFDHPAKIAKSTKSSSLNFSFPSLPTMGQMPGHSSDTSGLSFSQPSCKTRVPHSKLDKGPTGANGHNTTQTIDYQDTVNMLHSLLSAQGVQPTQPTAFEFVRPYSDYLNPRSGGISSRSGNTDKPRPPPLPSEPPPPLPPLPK

Which “Pol II pausing genome-wide upon CDK9 inhibition” value (Pol II pausing [1]; DLD1 cells, NVP-2 treatment 2 h) does the source give for NVP2 here?
Its value is “induced strong Pol II pausing genome-wide”.

Which results are given for “C46: BRD4 C terminus 46aa (SEQ ID NO: 1) expressed in cells with a GFP tag”?
competition with endogenous BRD4 for PTEFb (endogenous BRD4 IP) (PTEFb [2]; C46 expressed in BRD4-V5-IAA7 degron line): competes with the endogenous BRD4 for PTEFb; interaction with PTEFb (GFP IP-MS) (PTEFb [3]; Dox 50 nM 2 days): does not impair its interaction with PTEFb; binding to PTEFb (western blot for GFP IP) (PTEFb [3]): bind to PTEFb strongly

For “C85: BRD4 C terminus 85aa expressed in cells with a GFP tag”, which “binding to PTEFb (western blot for GFP IP)” value (PTEFb [3]) is on record?
Its value is “bind to PTEFb strongly”.

Which “effect on Pol II pausing (RNA-seq, NET-seq)” value (Pol II pausing [4]) does the source give for Cc1sc2c(c1C)C(c1ccc(Cl)cc1)=N[C@@H](CC(=O)NCCCCCCCCNC(=O)COc1cccc3c1C(=O)N(C1CCC(=O)NC1=O)C3=O)c1nnc(C)n1-2 (stereo partly drawn) [dBET6] here?
The value was “dramatic, genome-wide increase in paused Pol II at promoters”.

And the “degradation of endogenous BRDT” value (BRDT)?
The value was “degraded”.

What about the “Pol II pausing (Pol II occupancy profile)” value (Pol II pausing [1]; BRD4-IAA7 cells) of the same compound?
The value was “inducing pausing at the majority of Pol II-transcribed genes”.

And the “gene-by-gene log 2PRR correlation with auxin treatment” value (Pol II pausing [1]; BRD4-IAA7 cells, scatter plot)?
The value was “much stronger”.

And the “Ser2P ChIP-seq signals” value (Ser2P)?
Its value is “Ser2P signal fade away”.

What does the source list for O=C(O)Cc1c[nH]c2ccccc12 [auxin]?
BRD4 degradation (western blot) (BRD4): rapidly degraded; Pol II pausing (Pol II occupancy profile) (Pol II pausing [1]; BRD4-IAA7 cells): inducing pausing at the majority of Pol II-transcribed genes

With “p46: synthetic peptide of the BRD4 C terminus 46 residues” as the compound, how does the “amount of PTEFb bound to endogenous BRD4 or overexpressed GFP-tagged C46” value (PTEFb [2]; p46 added to cell lysate prior to IP) read?
Its value is “significantly decreased”.

And the “binding of PTEFb to Bio-p46” value (PTEFb [5]; cell lysate pre-incubated with increasing concentration of p46)?
Its value is “decreased binding of PTEFb”.

What about the “"IC50"” value (PTEFb [5]; competition between free and biotin-labelled peptides, in vitro) of the same compound?
The value was “hundred nanomole level”.
